According to patent US20040110787A1, “Heteroaryl-ethanolamine derivatives as antiviral agents” (priority 2002, published 2004):
Like-named read-outs stand apart in the source and are kept apart here.

How the values were obtained:
HCMV polymerase = biological target: T1, HCMV polymerase (Human cytomegalovirus, UniProt P08546); assay: HCMV polymerase scintillation proximity assay (SPA); type: biochemical
T1 construct: made in house; host or cells: recombinant baculovirus-infected SF-9 cells
Description: The HCMV polymerase assay is performed using a scintillation proximity assay (SPA) as described in several references, such as N. D. Cook, et al., Pharmaceutical Manufacturing International, pages 49-53 (1992); K Takeuchi, Laboratory Practice, September issue (1992); U.S. Pat. No. 4,568,649 (1986); which are incorporated by reference herein. Reactions are performed in 96-well plates. The assay is conducted in 100 μl volume with 5.4 mM HEPES (pH 7.5), 11.7 mM KCl, 4.5 mM MgCl2, 0.36 mg/ml BSA, and 90 nM ^3H-dTTP. Assays are run with and without CHAPS, (3-[(3-Cholamidopropyl)-dimethylammonio]-1-propane-sulfonate) at a final concentration of 2 mM. HCMV polymerase is diluted in enzyme dilution buffer containing 50% glycerol, 250 mM NaCl, 10 mM HEPES (pH 7.5), 100 μg/ml BSA, and 0.01% sodium azide. The HCMV polymerase, which is expressed in, recombinant baculovirus-infected SF-9 cells and purified according to literature procedures, is added at 10% (or 10 μl) of the final reaction volume, i.e., 100 μl. Compounds are diluted in 50% DMSO and 10 μl are added to each well. Control wells contain an equivalent concentration of DMSO. Unless noted otherwise, reactions are initiated via the addition of 6 nM biotinylated poly(dA)-oligo(dT) template/primer to reaction mixtures containing the enzyme, substrate, and compounds of interest. Plates are incubated in a 25° C. or 37° C. H2O bath and terminated via the addition of 40 μl/reaction of 0.5 M EDTA (pH 8) per well. Reactions are terminated within the time-frame during which substrate incorporation is linear and varied depending upon the enzyme and conditions used, i.e., 30 min. for HCMV polymerase. Ten (10) 10 μL of streptavidin-SPA beads (20 mg/ml in PBS/10% glycerol) are added following termination of the reaction. Plates are incubated 10 min. at 37° C., then equilibrated to room temperature, and counted on a Packard Topcount. Linear regressions are performed and IC50's are calculated using computer software.
A modified version of the above HCMV polymerase assay is performed as described above, but with the following changes: Compounds are diluted in 100% DMSO until final dilution into assay buffer. In the previous assay, compounds are diluted in 50% DMSO. 4.5 mM Dithiothreitol (DTT) is added to the polymerase buffer.
All results are listed as Polymerase IC50 ([…]) values. In Table 1, the term “n.d.” refers to activity data not determined.

HSV polymerase = HSV polymerase (Human herpesvirus 1, UniProt P04293); assay: HSV polymerase assay (Table 1); type: biochemical
HSV polymerase, sequence (P04293 whole entry): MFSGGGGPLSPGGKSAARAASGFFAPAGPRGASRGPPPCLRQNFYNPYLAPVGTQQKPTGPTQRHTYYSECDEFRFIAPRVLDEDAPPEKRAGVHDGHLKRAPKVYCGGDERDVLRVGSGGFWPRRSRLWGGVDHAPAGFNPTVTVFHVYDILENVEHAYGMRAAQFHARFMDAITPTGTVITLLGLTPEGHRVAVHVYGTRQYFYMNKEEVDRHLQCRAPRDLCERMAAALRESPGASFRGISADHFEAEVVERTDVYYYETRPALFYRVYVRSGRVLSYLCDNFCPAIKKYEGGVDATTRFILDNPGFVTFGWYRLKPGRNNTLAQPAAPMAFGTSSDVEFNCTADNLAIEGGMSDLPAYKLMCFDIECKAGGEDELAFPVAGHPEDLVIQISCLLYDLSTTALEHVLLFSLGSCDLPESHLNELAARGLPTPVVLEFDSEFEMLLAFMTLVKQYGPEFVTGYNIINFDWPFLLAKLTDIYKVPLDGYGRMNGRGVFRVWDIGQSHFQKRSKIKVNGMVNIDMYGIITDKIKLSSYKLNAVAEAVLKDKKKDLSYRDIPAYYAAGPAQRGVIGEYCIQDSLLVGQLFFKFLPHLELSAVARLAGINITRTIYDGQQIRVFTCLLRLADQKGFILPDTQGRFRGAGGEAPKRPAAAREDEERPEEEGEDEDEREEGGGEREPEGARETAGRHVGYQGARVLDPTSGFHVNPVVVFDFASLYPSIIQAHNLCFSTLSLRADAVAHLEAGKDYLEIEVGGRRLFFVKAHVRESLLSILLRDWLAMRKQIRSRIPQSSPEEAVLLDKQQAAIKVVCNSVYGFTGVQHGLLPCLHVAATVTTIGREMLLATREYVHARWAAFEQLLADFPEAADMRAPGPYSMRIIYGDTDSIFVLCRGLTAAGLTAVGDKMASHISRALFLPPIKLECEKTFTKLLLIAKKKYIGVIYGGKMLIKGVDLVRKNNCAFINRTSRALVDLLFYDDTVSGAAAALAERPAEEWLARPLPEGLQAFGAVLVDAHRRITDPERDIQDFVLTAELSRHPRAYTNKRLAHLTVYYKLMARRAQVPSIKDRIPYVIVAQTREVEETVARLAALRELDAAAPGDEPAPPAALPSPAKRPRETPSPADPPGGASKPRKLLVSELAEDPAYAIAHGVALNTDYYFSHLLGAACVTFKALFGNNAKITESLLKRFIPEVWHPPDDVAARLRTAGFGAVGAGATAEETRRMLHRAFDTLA

VZV polymerase = VZV polymerase (Varicella-zoster virus, UniProt P09252); assay: VZV polymerase assay (Table 1); type: biochemical
VZV polymerase, sequence (P09252 whole entry): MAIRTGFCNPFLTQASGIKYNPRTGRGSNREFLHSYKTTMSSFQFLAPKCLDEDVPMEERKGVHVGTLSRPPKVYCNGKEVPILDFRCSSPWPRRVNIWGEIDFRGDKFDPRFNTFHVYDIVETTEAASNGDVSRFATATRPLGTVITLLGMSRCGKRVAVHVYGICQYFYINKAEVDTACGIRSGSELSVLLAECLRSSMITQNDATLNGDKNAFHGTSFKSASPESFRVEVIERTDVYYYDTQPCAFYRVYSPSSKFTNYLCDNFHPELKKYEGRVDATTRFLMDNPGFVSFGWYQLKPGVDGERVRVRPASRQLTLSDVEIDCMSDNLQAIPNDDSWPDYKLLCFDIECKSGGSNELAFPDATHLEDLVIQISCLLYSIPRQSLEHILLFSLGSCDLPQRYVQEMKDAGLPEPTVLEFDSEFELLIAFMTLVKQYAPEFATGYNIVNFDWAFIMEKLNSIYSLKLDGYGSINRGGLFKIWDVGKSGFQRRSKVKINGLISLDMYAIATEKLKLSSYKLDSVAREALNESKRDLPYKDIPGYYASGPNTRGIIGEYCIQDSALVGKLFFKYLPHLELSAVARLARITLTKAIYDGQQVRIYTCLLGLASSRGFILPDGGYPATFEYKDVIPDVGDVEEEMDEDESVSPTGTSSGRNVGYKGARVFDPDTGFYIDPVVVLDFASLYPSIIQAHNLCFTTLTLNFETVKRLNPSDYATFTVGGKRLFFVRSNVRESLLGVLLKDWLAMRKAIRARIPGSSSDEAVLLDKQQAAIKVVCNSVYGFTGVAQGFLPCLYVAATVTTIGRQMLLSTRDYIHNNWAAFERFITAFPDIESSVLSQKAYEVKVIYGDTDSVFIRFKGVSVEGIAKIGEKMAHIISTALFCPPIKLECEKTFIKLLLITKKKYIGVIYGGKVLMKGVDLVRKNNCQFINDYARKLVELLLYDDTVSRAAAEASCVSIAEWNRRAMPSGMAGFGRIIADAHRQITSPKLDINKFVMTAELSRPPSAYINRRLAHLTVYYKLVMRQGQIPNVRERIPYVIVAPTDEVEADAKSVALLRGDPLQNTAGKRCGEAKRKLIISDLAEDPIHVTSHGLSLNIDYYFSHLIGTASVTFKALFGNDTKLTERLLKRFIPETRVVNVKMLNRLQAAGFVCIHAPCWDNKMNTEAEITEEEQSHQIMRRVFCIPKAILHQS

[1] = HCMV polymerase, SPA, read-out: Polymerase IC50 HCMV

T1 sequence (P08546 whole entry): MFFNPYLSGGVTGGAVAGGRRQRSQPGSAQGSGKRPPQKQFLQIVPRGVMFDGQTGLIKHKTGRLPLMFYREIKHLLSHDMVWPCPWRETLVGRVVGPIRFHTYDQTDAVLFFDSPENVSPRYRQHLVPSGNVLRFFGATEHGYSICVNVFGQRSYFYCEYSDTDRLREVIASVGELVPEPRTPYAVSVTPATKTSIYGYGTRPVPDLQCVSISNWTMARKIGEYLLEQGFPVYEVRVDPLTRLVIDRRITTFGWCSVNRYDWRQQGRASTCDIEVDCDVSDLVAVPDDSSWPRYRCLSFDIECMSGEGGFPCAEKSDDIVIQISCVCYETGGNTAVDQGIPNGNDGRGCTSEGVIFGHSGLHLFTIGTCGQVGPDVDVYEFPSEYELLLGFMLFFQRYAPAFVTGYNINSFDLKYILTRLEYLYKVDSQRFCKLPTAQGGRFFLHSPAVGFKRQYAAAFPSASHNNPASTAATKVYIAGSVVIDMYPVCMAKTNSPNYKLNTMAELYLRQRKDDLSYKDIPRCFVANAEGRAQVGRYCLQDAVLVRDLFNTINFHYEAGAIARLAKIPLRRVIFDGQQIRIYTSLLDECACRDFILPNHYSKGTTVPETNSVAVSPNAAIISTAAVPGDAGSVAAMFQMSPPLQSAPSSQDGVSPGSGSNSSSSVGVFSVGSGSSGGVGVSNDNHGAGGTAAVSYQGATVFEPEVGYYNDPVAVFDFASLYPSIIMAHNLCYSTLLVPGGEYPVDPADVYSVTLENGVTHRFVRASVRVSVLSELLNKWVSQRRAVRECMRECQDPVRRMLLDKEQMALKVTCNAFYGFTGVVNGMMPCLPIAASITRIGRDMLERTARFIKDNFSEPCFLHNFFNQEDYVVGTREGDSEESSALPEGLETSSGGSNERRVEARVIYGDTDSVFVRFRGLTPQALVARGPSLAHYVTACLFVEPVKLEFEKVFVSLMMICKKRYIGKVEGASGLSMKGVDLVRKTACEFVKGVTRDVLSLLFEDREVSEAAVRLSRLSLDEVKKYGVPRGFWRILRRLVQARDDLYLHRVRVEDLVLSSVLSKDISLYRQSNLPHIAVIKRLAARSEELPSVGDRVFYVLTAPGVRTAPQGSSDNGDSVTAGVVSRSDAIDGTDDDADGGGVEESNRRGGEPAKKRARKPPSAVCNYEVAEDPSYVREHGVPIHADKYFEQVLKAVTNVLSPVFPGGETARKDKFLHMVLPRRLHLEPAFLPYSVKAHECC

Row | IC50 (HCMV polymerase; [1]) | melting point | IC50 (HSV polymerase) | IC50 (VZV polymerase) | Compound | IC50 (HCMV polymerase)
1 | 160 nM | 160 to 162 °C | 580 nM | 220 nM | CN(Cc1cc2c(=O)c(C(=O)NCc3ccc(Cl)cc3)cn(C)c2s1)CC(O)c1cccnc1 (racemic) [Example 1, rac-N-(4-Chlorobenzyl)-2-(((2-hydroxy-2-pyridin-3-ylethyl)(methyl)amino)methyl)-7-methyl-4-oxo-4,7-dihydrothieno[2,3-b]pyridine-5-carboxamide] | 
2 | 200 nM | 185 to 188 °C | 470 nM | 220 nM | CN(Cc1cc2c(=O)c(C(=O)NCc3ccc(Cl)cc3)cn(C)c2s1)CC(O)c1ccncc1 (racemic) [Example 3, rac-N-(4-Chlorobenzyl)-2-(((2-hydroxy-2-pyridin-4-ylethyl)(methyl)amino)methyl)-7-methyl-4-oxo-4,7-dihydrothieno[2,3-b]pyridine-5-carboxamide] | 
3 | 90 nM | 145 to 147 °C | 100 nM | 30 nM | CN(Cc1cc2c(=O)c(C(=O)NCc3ccc(Cl)cc3)cn(C)c2s1)CC(O)c1ccccn1 (racemic) [Example 4, rac-N-(4-Chlorobenzyl)-2-(((2-hydroxy-2-pyridin-2-ylethyl)(methyl)amino)methyl)-7-methyl-4-oxo-4,7-dihydrothieno[2,3-b]pyridine-5-carboxamide] | 
4 | 620 nM | 158 to 162 °C |  |  | Cc1cccc(C(O)CN(C)Cc2cc3c(=O)c(C(=O)NCc4ccc(Cl)cc4)cn(C)c3s2)n1 (racemic) [Example 6, rac-N-(4-Chlorobenzyl)-2-(((2-hydroxy-2-(6-methylpyridin-2-yl)ethyl)(methyl)amino)methyl)-7-methyl-4-oxo-4,7-dihydrothieno[2,3-b]pyridine-5-carboxamide] | 
5 | 70 nM | 155 to 160 °C | 150 nM | 40 nM | CN(Cc1cc2c(=O)c(C(=O)NCc3ccc(Cl)cc3)cn(C)c2s1)CC(O)c1ccc2ccccc2n1 (racemic) [Example 7, rac-N-(4-Chlorobenzyl)-2-(((2-hydroxy-2-quinolin-2-ylethyl)(methyl)amino)methyl)-7-methyl-4-oxo-4,7-dihydrothieno[2,3-b]pyridine-5-carboxamide] | 
6 | 130 nM | 181 °C | 150 nM | 50 nM | CN(Cc1cc2c(=O)c(C(=O)NCc3ccc(Cl)cc3)cn(C)c2s1)CC(O)c1ncccn1 (racemic) [Example 8, rac-N-(4-Chlorobenzyl)-2-(((2-hydroxy-2-pyrimidin-2-ylethyl)(methyl)amino)methyl)-7-methyl-4-oxo-4,7-dihydrothieno[2,3-b]pyridine-5-carboxamide] | 
7 | 110 nM |  | 100 nM | 50 nM | CN(Cc1cc2c(=O)c(C(=O)NCc3ccc(Cl)cc3)cn(C)c2s1)CC(O)c1cnccn1 (racemic) [Example 10, rac-N-(4-Chlorobenzyl)-2-(((2-hydroxy-2-pyrazin-2-ylethyl)(methyl)amino)methyl)-7-methyl-4-oxo-4,7-dihydrothieno[2,3-b]pyridine-5-carboxamide] | 
8 | 1070 nM |  |  |  | CCCn1cc(C(=O)NCc2ccc(Cl)cc2)c(=O)c2cc(CN(C)CC(O)c3ccccn3)sc21 (racemic) [Example 15, rac-N-(4-Chlorobenzyl)-7-propyl-2-(((2-hydroxy-2-pyridin-2-ylethyl)(methyl)amino)methyl)-4-oxo-4,7-dihydrothieno[2,3-b]pyridine-5-carboxamide] | 
9 | 310 nM |  | 1090 nM | 210 nM | CCCn1cc(C(=O)NCc2ccc(Cl)cc2)c(=O)c2cc(CN(C)CC(O)c3cnccn3)sc21 (racemic) [Example 16, rac-N-(4-Chlorobenzyl)-2-(((2-hydroxy-2-pyrazin-2-ylethyl)(methyl)amino)methyl)-4-oxo-7-propyl-4,7-dihydrothieno[2,3-b]pyridine-5-carboxamide] | 
10 |  |  |  |  | CN(Cc1cc2c(=O)c(C(=O)NCc3ccc(Cl)cc3)cn(CCCO)c2s1)CC(O)c1ncccn1 (racemic) [Example 19, rac-N-(4-Chlorobenzyl)-7-(3-hydroxypropyl)-2-(((2-hydroxy-2-pyrimidin-2-ylethyl)(methyl)amino)methyl)-4-oxo-4,7-dihydrothieno[2,3-b]pyridine-5-carboxamide] | 1120 nM
11 | 1030 nM | 122 to 123 °C |  |  | COCCn1cc(C(=O)NCc2ccc(Cl)cc2)c(=O)c2cc(CN(C)CC(O)c3cnccn3)sc21 (racemic) [Example 21, rac-N-(4-Chlorobenzyl)-2-(((2-hydroxy-2-pyrazin-2-ylethyl)(methyl)amino)methyl)-7-(2-methoxyethyl)-4-oxo-4,7-dihydrothieno[2,3-b]pyridine-5-carboxamide] | 
12 | 50 nM |  | 130 nM | 30 nM | CN(Cc1cc2c(=O)c(C(=O)NCc3ccc(Cl)cc3)cn(C)c2s1)C[C@@H](O)c1ncccn1 [Example 9] | 
13 | 40 nM |  | 80 nM | 20 nM | CN(Cc1cc2c(=O)c(C(=O)NCc3ccc(Cl)cc3)cn(C)c2s1)C[C@@H](O)c1cnccn1 [Example 11, N-(4-Chlorobenzyl)-2-((((2R)-2-hydroxy-2-pyrazin-2-ylethyl)(methyl)amino)methyl)-7-methyl-4-oxo-4,7-dihydrothieno[2,3-b]pyridine-5-carboxamide] | 
14 | 310 nM |  | 840 nM | 230 nM | CN(Cc1cc2c(=O)c(C(=O)NCc3ccc(Cl)cc3)cn(C)c2s1)CC(O)c1cccnn1 (centres unmarked) [Example 12] | 
15 | 2190 nM |  |  |  | CN(Cc1cc2c(=O)c(C(=O)NCc3ccc(Cl)cc3)cn(CC(O)CO)c2s1)C[C@@H](O)c1ccccn1 (stereo partly drawn) [Example 17, N-(4-Chlorobenzyl)-7-(2,3-dihydroxypropyl)-2-((((2R)-2-hydroxy-2-pyridin-2-ylethyl)(methyl)amino)methyl)-4-oxo-4,7-dihydrothieno[2,3-b]pyridine-5-carboxamide] | 
16 |  |  |  |  | CN(Cc1cc2c(=O)c(C(=O)NCc3ccc(Cl)cc3)cn(CCCO)c2s1)C[C@@H](O)c1ccccn1 [Example 18, N-(4-Chlorobenzyl)-7-(3-hydroxypropyl)-2-((((2R)-2-hydroxy-2-pyridin-2-ylethyl)(methyl)amino)methyl)-4-oxo-4,7-dihydrothieno[2,3-b]pyridine-5-carboxamide] | 1300 nM
17 | 1160 nM |  |  |  | CN(Cc1cc2c(=O)c(C(=O)NCc3ccc(Cl)cc3)cn(CCO)c2s1)C[C@@H](O)c1ccccn1 [Example 20, N-(4-Chlorobenzyl)-7-(2-hydroxyethyl)-2-((((2R)-2-hydroxy-2-pyridin-2-ylethyl)(methyl)amino)methyl)-4-oxo-4,7-dihydrothieno[2,3-b]pyridine-5-carboxamide] | 
18 | 580 nM |  |  |  | CN(Cc1cc2c(=O)c(C(=O)NCc3ccc(Cl)cc3)cn(CCOCCO)c2s1)C[C@@H](O)c1cnccn1 [Example 22] | 
19 | 280 nM |  | 490 nM | 110 nM | CN(Cc1cc2c(=O)c(C(=O)NCc3ccc(F)cc3)cn(C)c2s1)C[C@@H](O)c1ccccn1 [Example 23, N-(4-Fluorobenzyl)-2-((((2R)-2-hydroxy-2-pyridin-2-ylethyl)(methyl)amino)methyl)-7-methyl-4-oxo-4,7-dihydrothieno[2,3-b]pyridine-5-carboxamide] | 
20 | 230 nM | 167 to 169 °C |  |  | CN(Cc1cc2c(=O)c(C(=O)NCc3ccc(C#N)cc3)cn(C)c2s1)C[C@@H](O)c1ccccn1 [Example 24, N(4-Cyanobenzyl)-2-((((2R)-2-hydroxy-2-pyridin-2-ylethyl)(methyl)amino)methyl)-7-methyl-4-oxo-4,7-dihydrothieno[2,3-b]pyridine-5-carboxamide] | 
21 | 150 nM | 151 to 153 °C |  |  | CN(Cc1cc2c(=O)c(C(=O)NCc3ccc(Br)cc3)cn(C)c2s1)C[C@@H](O)c1ccccn1 [Example 25, N(4-Bromobenzyl)-2-((((2R)-2-hydroxy-2-pyridin-2-ylethyl)(methyl)amino)methyl)-7-methyl-4-oxo-4,7-dihydrothieno[2,3-b]pyridine-5-carboxamide] | 

Row | Compound | IC50 (HCMV polymerase; [1]) | melting point | IC50 (HSV polymerase) | IC50 (VZV polymerase) | IC50 (HCMV polymerase)
22 | rac-N-(4-Chlorobenzyl)-7-ethyl-2-(((2-hydroxy-2-pyrimidin-2-ylethyl)(methylamino)methyl)-4-oxo-4,7-dihydrothieno[2,3-b]pyridine-5-carboxamide [Example 14] | 1200 nM |  |  |  | 
